Results as given in paper PMC9731865, “Gambogic acid and juglone inhibit RNase P through distinct mechanisms” (The Journal of Biological Chemistry, 2022).
Where two headings read alike, the source gives them in different places.

Molecular target: T1, A. thaliana PRORP1 (Arabidopsis thaliana, UniProt Q66GI4)
T1 construct: made in house
T1 sequence (Q66GI4 77-572): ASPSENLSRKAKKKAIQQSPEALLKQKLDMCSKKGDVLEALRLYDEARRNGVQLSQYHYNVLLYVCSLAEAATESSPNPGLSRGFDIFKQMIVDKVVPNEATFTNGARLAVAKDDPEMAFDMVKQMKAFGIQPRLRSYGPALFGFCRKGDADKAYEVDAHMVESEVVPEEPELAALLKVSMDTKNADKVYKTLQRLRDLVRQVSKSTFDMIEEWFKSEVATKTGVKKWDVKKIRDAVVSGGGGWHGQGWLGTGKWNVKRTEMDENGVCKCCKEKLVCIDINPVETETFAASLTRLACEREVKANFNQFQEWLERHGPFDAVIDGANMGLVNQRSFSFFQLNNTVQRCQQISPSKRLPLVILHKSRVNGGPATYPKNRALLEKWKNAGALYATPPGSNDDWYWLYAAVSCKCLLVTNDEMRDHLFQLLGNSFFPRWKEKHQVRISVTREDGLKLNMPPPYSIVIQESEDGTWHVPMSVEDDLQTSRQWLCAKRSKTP
Assay: FP cleavage assay, PRORP1 dose response
Format: biochemical
Conditions: for activity at 6.25 µM: read-out: PRORP1 Activity (%)
Method: Compounds gambogic acid (A) and juglone (B) were incubated with enzyme at double the reaction concentration for 30 min prior to the addition of an equal volume of substrate to initiate the reaction. PRORP1 reactions (shown in green) were performed with 0.3 nM PRORP1 and 800 nM pre-tRNA containing 40 nM Fl-pre-tRNA at 25 °C in 30 mM MOPS pH 7.8, 5 mM MgCl2, 100 mM NaCl, 1 mM TCEP, 500 nM (12 μg/ml) yeast tRNA, 5 mM spermidine, 6.65 μg/ml BSA, and 0.01% NP-40. MRPP1/2/3 reactions (shown in red) were performed using 50 nM MRPP3, 500 nM MRPP1/2, 500 nM pre-tRNA containing 40 nM Fl-pre-tRNA at 37 °C in 50 mM MOPS (pH 7.8), 1 mM TCEP, 4.5 mM MgCl2, and 100 mM NaCl. B. subtilis RNase P reactions (shown in blue) were performed using 20 nM RNase P and 500 nM pre-tRNA containing 40 nM Fl-pre-tRNA at 37 °C in 50 mM Tris, pH 7.2, 5 mM MgCl2, 100 mM KCl, 500 nM (12 μg/ml) yeast tRNA, 20 mM dithiothreitol (DTT), 10 mM spermidine, and 0.01% NP-40. Equation 1 was fit to each dataset.
The activity of PRORP1 catalyzed pre-tRNA cleavage was measured by monitoring the fluorescence anisotropy (FA) signal (λex = 485 nm and λem = 535 nm) over time at 25 °C in buffer conditions optimized for a high-throughput format, 30 mM MOPS pH 7.8, 5 mM MgCl2, 100 mM NaCl, 1 mM TCEP, 500 nM (12 μg/ml) yeast tRNA, 5 mM spermidine, 6.65 μg/ml BSA, and 0.01% NP-40. Yeast tRNA^mix (Roche) was used to reduce the number of compounds that inhibit PRORP1 activity by targeting tRNA. Prior to each reaction, pre-tRNA was heated for 3 min at 95 °C to unfold the RNA and refolded in the reaction buffer at room temperature (25 °C) for 30 min. Reactions were performed in black, 96-well plates (Corning Incorporation, #3686) using a TECAN plate-reader (Infinite F500, G-factor = 1.05) at 25 °C, and the FA values recorded. Reactions were initiated with the addition of substrate to enzyme. Experiments were done in the presence of excess substrate. The concentration of enzyme was 0.3 to 5 nM, the concentration of labeled substrate (Fl-pre-tRNA) was 40 nM, and the concentration of pre-tRNA was 120 to 4000 nM. The concentration of Fl-pre-tRNA was held constant in all reactions.
The dose response was measured using the FP assay as described above with varying concentrations of compound. Compounds were incubated with PRORP1 at twice the reaction concentration for 30 min prior to the addition of equal volumes of substrate to initiate the reaction. Experiments were done under multiple turnover conditions (same buffer conditions as the FP assay). […] PRORP1 activity was determined as a function of inhibitor concentration, and Equation 1 was fit to the data to determine the IC50 value. The standard error of the mean (SEM) is reported from the fit.(1) Activity(%)=100/1+([I]/IC50)^n

[1] = 6.25 μM of inhibitor, FP cleavage assay

SMILES | activity at 6.25 µM [1] [%] | further results
O=C1C(Cl)=C(Cl)C(=O)C(Cl)=C1Cl [chloranil] | 40.2 | 
CN(C)c1ccc(C(=C2C=CC(=[N+](C)C)C=C2)c2ccc(N(C)C)cc2)cc1 [gentian violet] | 0 | 
CC(=O)O[C@@H]1C[C@@]2(C)[C@H](c3ccoc3)C[C@H]3O[C@]32[C@]2(C)C(=O)C(O)=C3C(C)(C)C(=O)C=C[C@]3(C)[C@@H]12 [anthothecol] | 15.5 | 
COC(=O)/C(C)=C\C[C@@]12OC(C)(C)[C@@H]3C[C@@H](C=C4C(=O)c5c(O)c6c(c(CC=C(C)C)c5O[C@]431)O[C@](C)(CCC=C(C)C)C=C6)C2=O [methyl gambogate] |  | activity at 6.25 µM: 34.8%
O=C(O)C1=CC(=C(c2ccc(O)c(C(=O)O)c2)c2ccc(O)c(C(=O)O)c2)C=CC1=O [aurintricarboxylic acid] | 46.5 | 
CC1=CC(=O)c2c(O)cccc2C1=O [plumbagin] | 2.6 | 
Cc1cc(-c2ccc(/N=N/c3ccc4c(S(=O)(=O)O)cc(S(=O)(=O)O)c(N)c4c3O)c(C)c2)ccc1/N=N/c1ccc2c(S(=O)(=O)O)cc(S(=O)(=O)O)c(N)c2c1O [evans blue] | 20.2 | 
CC(=O)[O][Hg][c]1ccccc1 [phenylmercuric acetate] |  | PRORP1 Activity (%) [1]: 32.2%
